Data on two compounds can be found in patent US20190062277A1, “FARNESOID X RECEPTOR AGONISTS AND USES THEREOF” (Metacrine, Inc., priority 2015, published 2019).

As a reminder, the pEC50 is −log10 of the EC50, conventionally taken in molar units. Lower therefore signals a high EC50.

SMILES strings stand for the structures. pEC50: −log10 of the molar value.

In assay [1] the target is T1, FXR (Homo sapiens, UniProt Q96RI1).
T1 sequence (Q96RI1 1-486): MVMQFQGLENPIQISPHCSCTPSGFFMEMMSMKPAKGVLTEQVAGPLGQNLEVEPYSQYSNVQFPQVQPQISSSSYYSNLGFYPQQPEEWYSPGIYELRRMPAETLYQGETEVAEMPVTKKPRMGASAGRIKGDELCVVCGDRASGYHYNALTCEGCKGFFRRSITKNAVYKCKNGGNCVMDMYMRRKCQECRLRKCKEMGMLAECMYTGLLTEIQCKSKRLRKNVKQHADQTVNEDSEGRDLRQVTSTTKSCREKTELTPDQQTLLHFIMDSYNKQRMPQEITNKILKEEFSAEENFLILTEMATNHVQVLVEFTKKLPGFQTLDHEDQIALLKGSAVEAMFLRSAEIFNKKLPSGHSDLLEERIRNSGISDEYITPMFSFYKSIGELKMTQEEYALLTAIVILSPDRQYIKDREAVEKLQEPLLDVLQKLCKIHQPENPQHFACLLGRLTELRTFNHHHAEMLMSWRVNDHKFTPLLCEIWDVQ
T1 sequence (P19793 1-462 partner): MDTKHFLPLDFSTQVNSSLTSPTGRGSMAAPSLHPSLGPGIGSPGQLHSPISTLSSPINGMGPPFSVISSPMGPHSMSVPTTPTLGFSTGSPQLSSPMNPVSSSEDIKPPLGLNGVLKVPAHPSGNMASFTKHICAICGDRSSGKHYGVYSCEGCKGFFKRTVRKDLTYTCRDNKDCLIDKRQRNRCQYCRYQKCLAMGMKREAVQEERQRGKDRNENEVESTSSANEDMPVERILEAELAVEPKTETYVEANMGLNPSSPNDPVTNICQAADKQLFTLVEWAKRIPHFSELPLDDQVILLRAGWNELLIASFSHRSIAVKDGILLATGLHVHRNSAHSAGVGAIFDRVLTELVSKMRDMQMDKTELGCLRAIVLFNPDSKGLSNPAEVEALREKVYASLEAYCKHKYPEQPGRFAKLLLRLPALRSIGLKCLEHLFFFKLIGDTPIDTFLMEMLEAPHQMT
As to the kind of experiment: In Vitro FXR Assay (TK), luciferase reporter in transfected CV-1 cells. It counts as cell-based. Also on record: expressed in transfected cells; host or cells: CV-1 cells. As to conditions: CV-1 cells transfected with hFXR, hRXR, TK-ECRE-luc; 18 hrs incubation; luminescence; maximum efficacy <25% of Fexaramine control also classified '+'. On the procedure: Example B-2: In Vitro FXR Assay (TK)
CV-1 cells were seeded at a density of 2,000,000 cells in a T175 flask with DMEM+10% charcoal double-stripped FBS and incubated at 37° C. in 5% CO2 for 18 h (0/N).
After 18 h of incubation, the medium in the T175 flask was changed with fresh DMEM+10% charcoal super-stripped serum. In a polypropylene tube, 2500 μL OptiMEM (Life Technologies, Cat #31985-062) was combined with expression plasmids for hFXR, hRXR, TK-ECRE-luc and pCMX-YFP. The tube was then briefly vortexed and incubated at room temperature for 5 minutes. Transfection reagent (X-tremeGENE HP from Roche, Cat #06 366 236 001) was added to the OptiMEM/plasmid mixture vortexed and incubated at room temperature for 20 minutes. Following incubation, the transfection reagent/DNA mixture complex was added to cells in the T175 flask and the cells were incubated at 37° C. in 5% CO2 for 18 h (O/N).
Compounds were serially diluted in DMSO and added to transfected CV-1 cells. The cells were then incubated for 18 hrs. The next day cells were lysed and examined for luminescence.
In general terms: Reporter assays use an easily measured gene product as a stand-in for the process of interest.

The target of assay [2] is T1, FXR. As to the kind of experiment: In Vitro FXR Assay (PGL3), luciferase reporter in transfected CV-1 cells. It counts as cell-based. The arrangement: plasmids XPD90Gal pCMXhFXRfl, pCMXhRXRfl+PGL3-ECRE*6-luc+CMX-YFP; expressed in transfected cells; host or cells: CV-1 cells. As to conditions: CV-1 cells transfected with hFXR, hRXR, PGL3-ECRE*6-luc; 18 hrs incubation; luminescence. Here is the method: Example B-1: In Vitro FXR Assay (PGL3)
CV-1 cells were seeded at a density of 2,000,000 cells in a T175 flask with DMEM+10% charcoal double-stripped FBS and incubated at 37° C. in a 5% CO2 for 18 h (0/N).
After 18 h of incubation, the medium in the T175 flask was changed with fresh DMEM+10% charcoal super-stripped serum.
To prepare the transfection reaction mixture, the transfection reagent (X-tremeGENE HP from Roche, Cat #06 366 236 001) was added in to a 1.5 mL microcentrifuge tube labelled “A” at a ratio of 1:3 (DNA in μg: transfection reagent in μL). OptiMEM medium (Life Technologies, Cat #31985-062) was added accordingly to provide a total volume of 1 mL. The transfection reaction mixture was then briefly vortexed and incubated at room temperature for 5 minutes.
In a separate 1.5 mL microcentrifuge tube labelled “B”, 100 μL OptiMEM and plasmids XPD90Gal pCMXhFXRfl, pCMXhRXRfl+PGL3-ECRE*6-luc+CMX-YFP in the ratio 2 μg: 2 μg:18 μg:3 μg were added. This microcentrifuge tube “B” was then briefly vortexed and incubated at room temperature for 5 minutes.
The total volume in tube labelled “A” was then transferred in to tube labelled “B.” The mixture was then briefly vortexed and the transfection:DNA complex was then incubated for about 15-20 minutes at room temperature.
Following incubation, the transfection reagent/DNA mixture complex was then added to cells in the T175 flask and the cells were incubated at […] (0/N) at 37° C. in 5% CO2.
In a 96 well plate, a half logarithmic serial dilution was prepared. OptiMEM was used as the diluent. Using any of one of the compounds described herein, a compound stock solution of 10 mM was prepared. An initial 1:100 dilution was made into the first well for a final concentration of 100 μM. The final concentrations in the 96-well plate was prepared by using a multichannel pipette to transfer 5 μL of the diluted compound to 384-well plate in quadruplicate.
Cells in T175 flask were trypsinized and cells were resuspending in 40 mL phenol red free DMEM+10% charcoal super-stripped FBS. Typically, one T175 flask was sufficient to seed two 384 well plates. CV-1 cells were seeded at 45 μL cell suspension/well using a multi-channel pipet or a 384 multidrop dispenser. The cells were then incubated for 18 hrs, overnight.
After removing the plates from the incubator, the medium was flicked out of plate and 384 well plate was turned upside down onto paper towel. The remaining medium was gently tapped out. 15 μL lysis buffer was then added to each well using a multichannel pipet or a 384 well multi-drop dispenser. After incubation for 10 minutes at room temperature on shaker, 30 μL Luciferase buffer was added to each well. Luminescence counts were taken immediately using the Perkin Elmer Envision.
The ability of the compounds disclosed herein to […] FXR activity was quantified and the respective EC50 value was determined. Fex=fexaramine.

`COC(=O)/C=C/c1cccc(N(CC2CCN(c3ccc(N(C)C)cc3)CC2)C(=O)C2CCCCC2)c1` [Compound 2, (E)-Methyl 3-(3-(N-((1-(4-(dimethylamino)phenyl)piperidin-4-yl)methyl)cyclohexanecarboxamido)phenyl)acrylate] had a pEC50 on FXR [1] of at least 6.00. On FXR [2], the “Cmpd/Fex (ratio of the EC50 for the test compound relative to the EC50 of the Fexaramine control)” value was “+++ (‘+++’ means Cmpd/Fex <10)”.
The matching figures for `CN(C)c1ccc(N2CCC(CN(C(=O)C3CCCCC3)c3cccc(/C=C/C(=O)O)c3)CC2)cc1` [Compound 6, (E)-3-(3-(N-((1-(4-(Dimethylamino)phenyl)piperidin-4-yl)methyl)cyclohexanecarboxamido)phenyl)acrylic acid]: at most 5.00 and “+ (‘+’ means Cmpd/Fex >100)”.
